Assay results taken from ChEMBL document CHEMBL3822408, “Synthesis and antimicrobial evaluation of novel ethyl 2-(2-(4-substituted)acetamido)-4-subtituted-thiazole-5-carboxylate derivatives” (2016).
In brackets after ≈: the same amount, converted by molar mass.

Tests used:
Assay type in all cases: functional
Bacillus subtilis = assay: Antibacterial activity against Bacillus subtilis NCIM 2063 by broth dilution method
Escherichia coli = assay: Antibacterial activity against Escherichia coli NCIM 2256 by broth dilution method
Staphylococcus aureus = assay: Antibacterial activity against Staphylococcus aureus NCIM 2901 by broth dilution method
Candida albicans = assay: Antifungal activity against Candida albicans by broth dilution method
Aspergillus flavus = assay: Antifungal activity against Aspergillus flavus by broth dilution method
Aspergillus niger = assay: Antifungal activity against Aspergillus niger by broth dilution method

In the case of CC(=O)c1sc(NC(=O)CN2CCC(Cc3ccccc3)CC2)nc1C, the MIC (Bacillus subtilis) is reported as 35 µg/mL (≈ 94.2 µM), the MIC (Escherichia coli) is reported as 60 µg/mL (≈ 162 µM) and the MIC (Staphylococcus aureus) is reported as 50 µg/mL (≈ 135 µM). It also gave an MIC (Candida albicans) of 100 µg/mL (≈ 269 µM), an MIC (Aspergillus flavus) of 50 µg/mL (≈ 135 µM) and an MIC (Aspergillus niger) of 50 µg/mL (≈ 135 µM).
With CCOC(=O)c1sc(NC(=O)CN2CCCCC2)nc1C the MIC (Bacillus subtilis) was 45 µg/mL (≈ 145 µM), the MIC (Escherichia coli) was 60 µg/mL (≈ 193 µM) and the MIC (Staphylococcus aureus) was 100 µg/mL (≈ 321 µM). For the same molecule, the MIC (Candida albicans) was 75 µg/mL (≈ 241 µM), the MIC (Aspergillus flavus) was 100 µg/mL (≈ 321 µM) and the MIC (Aspergillus niger) was 100 µg/mL (≈ 321 µM).
With CCOC(=O)c1sc(NC(=O)CN2CCC(C)CC2)nc1C the MIC (Bacillus subtilis) was 35 µg/mL (≈ 108 µM), the MIC (Escherichia coli) was 50 µg/mL (≈ 154 µM) and the MIC (Staphylococcus aureus) was 70 µg/mL (≈ 215 µM). For the same molecule, the MIC (Candida albicans) was 75 µg/mL (≈ 230 µM), the MIC (Aspergillus flavus) was 50 µg/mL (≈ 154 µM) and the MIC (Aspergillus niger) was 50 µg/mL (≈ 154 µM).
For COC(=O)c1sc(NC(=O)CN2CCC(Cc3ccccc3)CC2)nc1C1CC1, the MIC (Bacillus subtilis) was 29 µg/mL (≈ 70.1 µM), the MIC (Escherichia coli) was 29 µg/mL (≈ 70.1 µM) and the MIC (Staphylococcus aureus) was 28 µg/mL (≈ 67.7 µM). For the same molecule, the MIC (Candida albicans) was 25 µg/mL (≈ 60.5 µM), the MIC (Aspergillus flavus) was 12.5 µg/mL (≈ 30.2 µM) and the MIC (Aspergillus niger) was 12.5 µg/mL (≈ 30.2 µM).
Molecule CCOC(=O)c1sc(NC(=O)CN2CCC(Cc3ccccc3)CC2)nc1CC has an MIC (Bacillus subtilis) of 40 µg/mL (≈ 96.3 µM), an MIC (Escherichia coli) of 100 µg/mL (≈ 241 µM) and an MIC (Staphylococcus aureus) of 100 µg/mL (≈ 241 µM). The MIC (Candida albicans) was 75 µg/mL (≈ 180 µM), the MIC (Aspergillus flavus) was 100 µg/mL (≈ 241 µM) and the MIC (Aspergillus niger) was 100 µg/mL (≈ 241 µM).
With COC(=O)c1cnc(NC(=O)CN2CCC(Cc3ccccc3)CC2)s1 the MIC (Bacillus subtilis) was 35 µg/mL (≈ 93.7 µM), the MIC (Escherichia coli) was 60 µg/mL (≈ 161 µM) and the MIC (Staphylococcus aureus) was 50 µg/mL (≈ 134 µM). For the same molecule, the MIC (Candida albicans) was 100 µg/mL (≈ 268 µM), the MIC (Aspergillus flavus) was 50 µg/mL (≈ 134 µM) and the MIC (Aspergillus niger) was 50 µg/mL (≈ 134 µM).
With CCOC(=O)c1cnc(NC(=O)CN2CCC(Cc3ccccc3)CC2)s1 the MIC (Bacillus subtilis) was 29 µg/mL (≈ 74.8 µM), the MIC (Escherichia coli) was 29 µg/mL (≈ 74.8 µM) and the MIC (Staphylococcus aureus) was 28 µg/mL (≈ 72.3 µM). The MIC (Candida albicans) was 25 µg/mL (≈ 64.5 µM), the MIC (Aspergillus flavus) was 12.5 µg/mL (≈ 32.3 µM) and the MIC (Aspergillus niger) was 12.5 µg/mL (≈ 32.3 µM).
Molecule CCOC(=O)c1sc(NC(=O)CN2CCC(Cc3ccccc3)CC2)nc1C has an MIC (Bacillus subtilis) of 35 µg/mL (≈ 87.2 µM), an MIC (Escherichia coli) of 50 µg/mL (≈ 125 µM) and an MIC (Staphylococcus aureus) of 70 µg/mL (≈ 174 µM). For the same molecule, the MIC (Candida albicans) was 75 µg/mL (≈ 187 µM), the MIC (Aspergillus flavus) was 50 µg/mL (≈ 125 µM) and the MIC (Aspergillus niger) was 50 µg/mL (≈ 125 µM).
Work on Cc1csc(NC(=O)CN2CCC(Cc3ccccc3)CC2)n1 yielded an MIC (Bacillus subtilis) of 35 µg/mL (≈ 106 µM), an MIC (Escherichia coli) of 50 µg/mL (≈ 152 µM) and an MIC (Staphylococcus aureus) of 70 µg/mL (≈ 212 µM). The MIC (Candida albicans) was 75 µg/mL (≈ 228 µM), the MIC (Aspergillus flavus) was 50 µg/mL (≈ 152 µM) and the MIC (Aspergillus niger) was 50 µg/mL (≈ 152 µM).
For CCOC(=O)c1sc(NC(=O)CN2CCC(c3ccccc3)CC2)nc1C, the MIC (Bacillus subtilis) was 28 µg/mL (≈ 72.3 µM), the MIC (Escherichia coli) was 29 µg/mL (≈ 74.8 µM) and the MIC (Staphylococcus aureus) was 30 µg/mL (≈ 77.4 µM). It also gave an MIC (Candida albicans) of 25 µg/mL (≈ 64.5 µM), an MIC (Aspergillus flavus) of 12.5 µg/mL (≈ 32.3 µM) and an MIC (Aspergillus niger) of 25 µg/mL (≈ 64.5 µM).
With Cc1nc(NC(=O)CN2CCC(Cc3ccccc3)CC2)sc1C the MIC (Bacillus subtilis) was 28 µg/mL (≈ 81.5 µM), the MIC (Escherichia coli) was 29 µg/mL (≈ 84.4 µM) and the MIC (Staphylococcus aureus) was 30 µg/mL (≈ 87.3 µM). The MIC (Candida albicans) was 25 µg/mL (≈ 72.8 µM), the MIC (Aspergillus flavus) was 12.5 µg/mL (≈ 36.4 µM) and the MIC (Aspergillus niger) was 12.5 µg/mL (≈ 36.4 µM).
CCOC(=O)c1sc(NC(=O)CN2CCC(Cc3ccccc3)CC2)nc1-c1ccccc1 showed an MIC (Bacillus subtilis) of 25 µg/mL (≈ 53.9 µM), an MIC (Escherichia coli) of 29 µg/mL (≈ 62.6 µM) and an MIC (Staphylococcus aureus) of 28 µg/mL (≈ 60.4 µM). It also gave an MIC (Candida albicans) of 50 µg/mL (≈ 108 µM), an MIC (Aspergillus flavus) of 25 µg/mL (≈ 53.9 µM) and an MIC (Aspergillus niger) of 25 µg/mL (≈ 53.9 µM).
Work on OC(Cn1cncn1)(Cn1cncn1)c1ccc(F)cc1F [FLUCONAZOLE] yielded an MIC (Candida albicans) of 40 µg/mL (≈ 131 µM), an MIC (Aspergillus flavus) of 25 µg/mL (≈ 81.6 µM) and an MIC (Aspergillus niger) of 25 µg/mL (≈ 81.6 µM).
Work on C[C@H]1COc2c(N3CCN(C)CC3)c(F)cc3c(=O)c(C(=O)O)cn1c23.C[C@H]1COc2c(N3CCN(C)CC3)c(F)cc3c(=O)c(C(=O)O)cn1c23.O [LEVOFLOXACIN] yielded an MIC (Bacillus subtilis) of 29 µg/mL, an MIC (Escherichia coli) of 29 µg/mL and an MIC (Staphylococcus aureus) of 28 µg/mL.
In the case of Clc1ccc(COC(Cn2ccnc2)c2ccc(Cl)cc2Cl)c(Cl)c1 (stereo unspecified) [MICONAZOLE], the MIC (Candida albicans) is reported as 12.5 µg/mL (≈ 30 µM), the MIC (Aspergillus flavus) is reported as 12.5 µg/mL (≈ 30 µM) and the MIC (Aspergillus niger) is reported as 12.5 µg/mL (≈ 30 µM).
